According to patent publication US20110173718A1, “HERBICIDE TOLERANT PLANTS” (SYNGENTA CROP PROTECTION, INC., priority 2008, published 2011):

Target: T1, Chlamydomonas HST (Chlamydomonas reinhardtii, UniProt A1JHN0)
T1 construct: GST (N); made in house; host or cells: E. coli (BL21A1 / BL21DE3), membrane fraction
T1 sequence (A1JHN0 51-370): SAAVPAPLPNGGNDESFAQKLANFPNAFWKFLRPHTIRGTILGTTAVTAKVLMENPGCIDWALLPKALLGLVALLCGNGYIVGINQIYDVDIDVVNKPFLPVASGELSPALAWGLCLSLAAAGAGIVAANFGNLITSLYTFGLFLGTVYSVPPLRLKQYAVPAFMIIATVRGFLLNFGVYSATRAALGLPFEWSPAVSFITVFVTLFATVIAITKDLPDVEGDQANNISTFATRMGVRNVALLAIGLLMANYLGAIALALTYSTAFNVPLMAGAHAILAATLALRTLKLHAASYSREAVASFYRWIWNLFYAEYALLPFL
Assay: HST assay (TLC, MFBQ formed), recombinant Chlamydomonas HST in E. coli membranes
Assay type: biochemical
Settings: TLC, estimated amount of MFBQ formed, relative to controls
Experimental: Alternatively, Arabidopsis and Chlamydomonas mature HST coding sequences are cloned as GST N-terminal fusion enzymes and expressed in E. coli.
E. coli. BL21A1 cells expressing mature Arabidopsis or Chlamydonionas HST as a GST N-terminal fusion proteins are grown, harvested, broken and membrane fractions expressing HST produced.
For example, 1 ng of recombinant DNA is used to transform BL21DE3 cells to obtain a plateful of individual colonies. One of these colonies is picked and used to inoculate an overnight culture of 100 ml of Luria Broth (LB) supplemented with 50 ug/ml of kanamycin at final concentration, grown at 37° C. with shaking at 220 rpm. Next morning, 10 mls of the overnight culture is used to inoculate 11 of fresh sterile LB supplemented with 50 ug/ml of kanamycin at final concentration, grown at 37° C. with shaking at 220 rpm until the OD reached 0.6 at 600 nm, induced with the addition of 0.1 mM IPTG and left to induce at 15° C. overnight. The cells are harvested by centrifugation at 4600 rpm for 10 min at 4° C. and the pellet stored at −80° C. […] E. coli cell pellet is then resuspended in 25 ml of 50 mM Tris, pH 7.5 supplemented with Roche EDTA-free protease inhibitor tablet (one tablet in 200 mls of buffer). 10 ml of cells are lysed by sonication on ice. The resultant lysed cells are centrifuged at 3000 g for 10 min to pellet the cell nuclei/debris etc. 10 mls of supernatant is aspirated and centrifuged at 150,000 g for 60 min at 4° C. The pellet containing the membranes is resuspended in 2 ml of the above buffer. These samples are stored as 100 ul aliquots at −80° C., after being diluted with addition of glycerol to 50% v/v.
Prenyltransferase (HST) activities are measured by determining the prenylation rates of [U—^14C]homogentisate using farnesyl diphosphate (FDP) as prenyl donor. ^14C homogentisate is prepared from ^14C tyrosine using L amino acid oxidase and HPPD. For inhibitor testing, compounds are dissolved in dimethylsulfoxide (DMSO). DMSO added at up to 2% v/v has no effect on assays. Control assays contain DMSO at the same concentration as in inhibitor containing assays.
The recombinant Chlamydomonas HST expressed in E. coli membranes is assayed in standard reaction mixtures with 200 μM FDP and 100 μM ^14C-homogentisate (40 dpm/pmol) in 50 mM Tricine-NaOH pH 8.5, 20 mM MgCl2. Assays are started with the addition of enzyme and run for ˜20 min at 28° C.
Recombinant Arabidopsis and Rice HSTs are expressed in insect cells. Assays are run as for Chlamydomonas HST except that assay temperature is 27° C. Assays are stopped with 300 ul of solvent mix (1:2, Chloroform:Methanol) and 100 ul of 0.5% NaCl, agitated/mixed and spun at 13,000 rpm in a benchtop eppendorf centrifuge for 5 minutes. 80 ul of the lower phase extract is loaded onto a TLC plate (silica Gel 60, 20 cm×20 cm) FLA3000 system and run for 35 minutes in dichloromethane. The radioactivity is quantified using a Fuji Phosphoimager and band intensity integrated as quantitative measure of product amount. The bands corresponding to oxidised and reduced 2-methyl-6-farnesyl-1,4-benzoquinol (MFBQ) are identified and the total of the two (oxidised and reduced) band intensities is calculated in order to estimate the total amount of MFBQ product formation. Specific activities of 8 pmol MFBQ min^−1 mg^−1 protein (23 pmol) and 7 pmol MFBQ min^−1 mg^−1 protein (14 pmol) are, for example, estimated for the GST-fusion truncated Arabidopsis HST gene (SEQ ID # 3) expressed in membranes from insect cells 4 days and 5 days after transfection respectively. Similar results are noted from past literature on E. coli expressed Arabidopsis HST. Activity from the insect cell expressed GST-fusion truncated rice HST (SEQ ID# 4) is similar. Expression of the non-truncated HST coding sequences as GST fusions also gives HST activity. […]

Row | Structure (SMILES) | Chlamydomonas. HST % I at 10 ppm [%] | Chlamydomonas. HST % I at 100 ppm [%]
1 | CN1CC(c2c(F)ccc(F)c2Cl)=C(O)c2ncccc21 [Compound 4.1] | 0 | 0
2 | O=c1[nH]c2nccnc2c(O)c1-c1ccccc1OC(F)(F)F [Compound 2.6] | 5 | 20
3 | O=c1[nH]c2nccnc2c(O)c1-c1c(F)ccc(Br)c1Cl [Compound 2.1] | 10 | 40
4 | Cc1cc(C)c(-c2c(O)c3nccnc3n(C)c2=O)c(C)c1 [Compound 2.2] | 70 | 95
5 | Nc1nc[nH]n1 [Amitrole, reference compound] | 0 | 0
6 | O=c1[nH]c2nccnc2c(O)c1-c1c(F)ccc(F)c1Cl [Compound 2.7] | 5 | 20
